Read-outs that look alike come from different tables or passages of the source.
Legend:
[1] = Stability in liver microsomes (Example 21), beagle dog; type: in vitro ADME; details: male, pH 7.4, 0.5 mg/mL protein
Method: General Procedure. Briefly, test compounds (final concentration 1 μM) were incubated in duplicate with liver microsomes from male animals of the indicated species (final protein concentration 0.5 mg/mL) in 50 mM sodium phosphate buffer (pH 7.4) with or without NADPH (1 mM). Total incubation volume was 500 μL. At 0, 5, 15, 30, and 60 min, aliquots of 50 μL were withdrawn, quenched with acetonitrile (150 μL), and analyzed for parent compound remaining using a fit-for-purpose LC-MS/MS method. Intrinsic clearance and half-life were calculated. Clearance values below zero were rounded to zero.

[2] = target: recombinant human NMDA receptor (GRIN1/GRIN2B) (Homo sapiens (Human), UniProt Q05586+Q13224); assay: Unblocking kinetics at the NMDA receptor in Xenopus laevis oocytes (two-electrode voltage clamp); type: cell-based; details: for Unblocking T1/2 ± SEM: compounds applied at 3×IC50, -70 mV, n ≥ 5
Method: Compounds 2R, 2S, and 2-(2-fluorophenyl)-2-(methylamino)cyclohexan-1-one 2-F-DCK were tested for unblocking kinetics at the NMDA receptor in Xenopus laevis oocytes expressing recombinant human NMDA receptor (GRIN1/GRIN2B) (Table 22).
Experimental Procedure. Oocytes were harvested from adult Xenopus laevis and incubated in 96 well plates for two to four days prior to recordings. Plasmids containing cDNA encoding for human NMDA receptor subunits GRIN1 and GRIN2B were transcribed using the mMessage mMachine T7 transcription kit (Ambion, USA). The Roboocyte automated injection system was used for injection of cRNA coding for hNMDA receptor subunits at a concentration of 100 ng/μL per subunit. Oocytes were clamped to a holding potential of −70 mV and induced currents after compound application were sampled at 200 Hz at room temperature. Agonist induced currents were recorded with a two-electrode voltage clamp. To determine the unblocking kinetics, glutamate and glycine (3 and 10 μM, respectively) were applied to the oocytes and the current recorded for 90 s. Then, compounds were applied at 3×IC50 for 120 s and the currents recorded.

[3] = Comparative oral pharmacokinetics of 2R, 2S and 2-F-DCK in mice; type: in vivo, C57BL/6 mice; details: 10 mg/kg po; for Cmax / half-life / AUC(0-t): male, C57BL/6; for half-life: read-out: t1/2 (po); for AUC(0-t): read-out: AUC0-last (po) (converted)
Method: Animals. Male C57BL/6 mice were used in these studies. Aminals were randomly assigned to treatment groups and were fasted for 4 h before dosing.
Drugs. Test compounds were dissolved in a vehicle consisting of normal saline, They were then administered orally (po) at a dose of 10 mg/kg (calculated based on freebase) and at a volume of 10 mL/kg body weight.
Sample Collection and Bioanalysis. Blood samples (approximately 60 μL) were collected under light isoflurane anesthesia (Surgivet®) from the retro orbital plexus at 0.08, 0.25, 0.5, 1, 2, 4, 8, and 24 h (4 animals per time point). Immediately after blood collection, plasma was harvested by centrifugation at 4,000 rpm for 10 min at 4° C. and samples were stored at −70±10° C. until bioanalysis. Following blood collection, animals were immediately sacrificed, the abdominal vena-cava was cut open, and the whole body was perfused from the heart using 10 mL of normal saline, and brain samples were collected from all animals. After isolation, brain samples were rinsed three times in ice-cold normal saline (for 5-10 seconds/rinse using ˜5-10 mL normal saline in disposable petri dish for each rinse) and dried on blotting paper. Brain samples were homogenized using ice-cold phosphate-buffered saline (pH 7.4). Total homogenate volume was three times the tissue weight. All homogenates were stored at −70±10° C. until bioanalysis. For bioanalysis, 25 μL aliquots of plasma/brain study samples or spiked plasma/brain calibration standards were added to individual pre-labeled micro-centrifuge tubes followed by 100 μL of an internal standard solution (glipizide, 500 ng/mL in acetonitrile) except for blanks, where 100 μL of acetonitrile was added. Samples were vortexed for 5 minutes and then centrifuged for 10 minutes at 4,000 rpm at 4° C. Following centrifugation, 100 μL of each clear supernatant was transferred to a 96 well plate and analyzed with a fit-for-purpose LC-MS/MS method, with authentic samples of each analyte used for calibration and identification.
Data Analysis. Pharmacokinetic parameters were estimated using the non-compartmental analysis tool of Phoenix® WinNonlin software (Ver 8.0).

[4] = target: serotonin transporter (SERT) (Homo sapiens (Human), UniProt P31645); assay: SERT competition radioligand binding ([3H]imipramine); details: for Ki: Human recombinant (CHO cells), 2.0 nM [3H]imipramine
Method: Disclosed compounds were tested for their binding affinity at the serotonin transporter (SERT) using a competition radioligand binding assay (Eurofins Cerep). Assay conditions are described in Table 16 below.

Chain of recombinant human NMDA receptor (GRIN1/GRIN2B) (Q13224 whole entry, looked up, other chains not shown): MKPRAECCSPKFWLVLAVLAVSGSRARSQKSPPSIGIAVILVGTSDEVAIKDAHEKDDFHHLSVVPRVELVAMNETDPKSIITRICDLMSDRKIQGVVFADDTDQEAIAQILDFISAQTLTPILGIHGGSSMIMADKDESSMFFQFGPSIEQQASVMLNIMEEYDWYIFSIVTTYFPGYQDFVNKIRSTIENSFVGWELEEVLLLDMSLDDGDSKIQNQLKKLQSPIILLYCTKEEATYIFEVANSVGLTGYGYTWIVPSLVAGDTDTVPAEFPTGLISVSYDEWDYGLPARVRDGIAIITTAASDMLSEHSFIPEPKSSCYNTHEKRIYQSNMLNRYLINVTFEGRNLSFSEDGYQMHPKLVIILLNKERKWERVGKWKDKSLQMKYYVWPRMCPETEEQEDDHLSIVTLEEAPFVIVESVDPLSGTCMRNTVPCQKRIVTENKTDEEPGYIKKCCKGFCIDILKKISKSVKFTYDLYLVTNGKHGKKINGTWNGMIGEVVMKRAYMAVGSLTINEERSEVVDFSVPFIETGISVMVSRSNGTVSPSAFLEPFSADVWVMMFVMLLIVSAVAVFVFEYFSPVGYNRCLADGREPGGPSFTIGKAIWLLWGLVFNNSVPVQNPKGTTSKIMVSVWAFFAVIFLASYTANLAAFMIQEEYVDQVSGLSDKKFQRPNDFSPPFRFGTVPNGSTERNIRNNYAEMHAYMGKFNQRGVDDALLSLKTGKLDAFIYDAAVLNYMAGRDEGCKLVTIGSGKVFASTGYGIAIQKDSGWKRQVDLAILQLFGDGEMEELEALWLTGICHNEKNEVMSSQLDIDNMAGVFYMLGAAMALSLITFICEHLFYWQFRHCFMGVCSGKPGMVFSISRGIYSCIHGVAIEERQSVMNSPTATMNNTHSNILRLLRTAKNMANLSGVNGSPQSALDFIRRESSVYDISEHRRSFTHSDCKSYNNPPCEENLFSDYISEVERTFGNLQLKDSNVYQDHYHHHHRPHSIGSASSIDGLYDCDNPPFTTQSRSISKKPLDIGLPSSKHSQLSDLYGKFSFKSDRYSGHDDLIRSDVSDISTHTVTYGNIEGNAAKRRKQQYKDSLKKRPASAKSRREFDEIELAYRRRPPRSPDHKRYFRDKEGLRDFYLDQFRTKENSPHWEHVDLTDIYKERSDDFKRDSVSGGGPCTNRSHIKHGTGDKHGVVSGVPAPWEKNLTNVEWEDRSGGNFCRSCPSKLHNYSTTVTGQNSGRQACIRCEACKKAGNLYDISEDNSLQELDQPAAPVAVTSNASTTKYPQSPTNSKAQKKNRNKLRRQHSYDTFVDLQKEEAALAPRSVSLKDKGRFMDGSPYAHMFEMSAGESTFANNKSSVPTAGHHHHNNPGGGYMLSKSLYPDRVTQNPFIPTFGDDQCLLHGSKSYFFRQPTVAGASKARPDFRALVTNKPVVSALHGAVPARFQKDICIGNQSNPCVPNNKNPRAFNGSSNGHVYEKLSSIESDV

CN[C@@]1(c2ccc(F)cc2)CCCCC1=O [Compound 2R, (R)-2-(4-fluorophenyl)-2(methylamino)cyclohexan-1-one]
microsomal CLint at 1 μM [1]: 10.5 µL/min/mg | half-life for unblocking compared to 2-F-DCK (in words) [2]: much shorter half-life for unblocking | Unblocking T1/2 ± SEM [2]: 22.7 ± 2.3 s | Cmax ([3]; mouse brain): 3280 ng/g | half-life ([3]; mouse brain): 2.97 h | Cmax ([3]; mouse plasma): 1180 ng/mL | AUC(0-t) ([3]; mouse plasma): 1120 ng·h/mL | half-life ([3]; mouse plasma): 1.38 h | AUC0-last (po) ([3]; mouse brain): 200464 ng·min/g | Ki [4]: 6.2 µM | SERT binding potency relative to 2S (more potent) ([4]; human recombinant SERT): ~2 fold

CN[C@]1(c2ccc(F)cc2)CCCCC1=O [Compound 2S, (S)-2-(4-fluorophenyl)-2-(methylamino)cyclohexan-1-one]
microsomal CLint at 1 μM [1]: 7.3 µL/min/mg | half-life for unblocking compared to 2-F-DCK (in words) [2]: much shorter half-life for unblocking | Unblocking T1/2 ± SEM [2]: 27.0 ± 6.1 s | Cmax ([3]; mouse brain): 3540 ng/g | half-life ([3]; mouse brain): 2.18 h | Cmax ([3]; mouse plasma): 1390 ng/mL | AUC(0-t) ([3]; mouse plasma): 940 ng·h/mL | half-life ([3]; mouse plasma): 1.48 h | AUC0-last (po) ([3]; mouse brain): 123388 ng·min/g | Ki [4]: 12 µM
